Results published in patent US20160333071A1 (THE TRUSTEES OF COLUMBIA UNIVERSITY IN THE CITY OF NEW YORK, priority 2014, published 2016).

System: endocardial tissue slabs (incorporating the construct injection site)
Set-up: species or system dog

Structure (SMILES)	effect on rate of isoproterenol-enhanced rhythms
NC1=N[C@H](O)[C@H]2[C@H]3O[C@]4(O)O[C@@H]([C@@H](O)[C@@]2(N1)[C@@H]4O)[C@]3(O)CO [Tetrodotoxin, tetrodotoxin]	reductions in rate
COc1cc2c(cc1OC)CC(=O)N(CCCN(C)C[C@H]1Cc3cc(OC)c(OC)cc31)CC2 [ivabradine]	reductions in rate
